Literature values in patent publication US6770295B1 (Pharmacia AB, priority 1998, dated 2004).

Details: following oral administration

For `CCN(CC)CC#CCOC(=O)C(O)(c1ccccc1)C1CCCCC1` (racemic) [Oxybutynin, 4-diethylamino-2-butynyl-phenylcyclohexylglycolate], the duration is given as “three to six”.
